Data on 15 compounds can be found in PubChem BioAssay (NCI).

Among the test systems are SNB-19 CNS; SF-295 CNS; ACHN renal; KM12 colon; OVCAR-3 ovarian; SNB-75 CNS; T-47D breast; NCI-H226 lung.
Common to all, as to test: DTP human tumour cell line panel, 48 h

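Where inhibition never reached the appropriate level, the endpoint shown equals the highest concentration tested. Otherwise, values were interpolated linearly from a five-concentration, 48-hour dose response in 96-well plates. GI50 marks 50% less growth. TGI is the concentration that stops growth completely.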

As to `CC(=O)NC1C(CO)O[C@@H]2OC(C)(C)O[C@H]12` (some centres undefined), the TGI with SNB-19 CNS, with SF-295 CNS, in the assay on ACHN renal, with KM12 colon, in the assay with OVCAR-3 ovarian and in the assay with SNB-75 CNS was > 100 µM in each case.
Turning to `NC(N)=N/N=C/c1c(-c2ccc([N+](=O)[O-])cc2)nc2sccn12`, the TGI in the assay with SNB-19 CNS turned out to be 2.74 µM; with SF-295 CNS, 2.87 µM; in the assay on ACHN renal it was 7.27 µM; with T-47D breast it was 3.58 µM; in the assay on KM12 colon, 1.88 µM; in the assay with OVCAR-3 ovarian it was 2.89 µM. The TGI in the assay with SNB-75 CNS amounted to 3.27 µM.
Take `OCC1OC(n2cnc3cccnc32)CC1O` (centres undefined): the TGI with SNB-19 CNS, in the assay with SF-295 CNS, in the assay on ACHN renal, in the assay with T-47D breast, with KM12 colon and in the assay with NCI-H226 lung was > 100 µM throughout. Besides, the TGI in the assay on OVCAR-3 ovarian and in the assay on SNB-75 CNS was > 100 µM each time.
In the case of `CN(C(=O)C1(C(=O)C=[N+]=[N-])CC1)c1ccccc1`, the TGI in the assay on SNB-19 CNS, with SF-295 CNS, with ACHN renal, in the assay with KM12 colon, with NCI-H226 lung and in the assay on OVCAR-3 ovarian was > 100 µM in each case. In addition, the TGI with SNB-75 CNS is > 100 µM.
Take `CCOC(=O)c1ccc2nc(NC(=O)COC(=O)CSc3nc(C)cc(C)n3)sc2c1`: the TGI in the assay on SNB-19 CNS was > 100 µM; in the assay with SF-295 CNS, > 100 µM; in the assay with ACHN renal, > 100 µM; with T-47D breast, 63.6 µM; with KM12 colon, > 100 µM; with OVCAR-3 ovarian, 91.5 µM. This compound also yielded a TGI in the assay with SNB-75 CNS of 60.4 µM.
Take `O=C(Nn1c(-c2ccccc2)nc2ccccc2c1=O)c1ccccn1`: the TGI with SNB-19 CNS, in the assay on SF-295 CNS, with ACHN renal, in the assay with T-47D breast, in the assay with KM12 colon and with OVCAR-3 ovarian was > 100 µM throughout. Moreover, in the assay on SNB-75 CNS, the TGI was > 100 µM.
In the case of `O=C1c2[nH]cc(CN3CCNCC3)c2C(=O)c2c1c(O)c1ccccc1c2O`, the GI50 in the assay on SNB-19 CNS was 2.22 µM; in the assay on SF-295 CNS, 1.74 µM; in the assay with ACHN renal, 1.57 µM; with T-47D breast, 13.8 µM; in the assay on KM12 colon, 20.9 µM; with NCI-H226 lung it was 12.2 µM. Besides, the figures for the GI50 in the assay with OVCAR-3 ovarian and in the assay with SNB-75 CNS were 1.77 µM and 15.4 µM, respectively. In addition, the TGI with SNB-19 CNS was found to be 6 µM; in the assay with SF-295 CNS, 3.37 µM; in the assay on ACHN renal, 3.37 µM; in the assay on T-47D breast it was 34.4 µM; with KM12 colon it was 53 µM; in the assay on NCI-H226 lung, 40.7 µM. The TGI amounted to 4.05 µM with OVCAR-3 ovarian and 37.8 µM in the assay with SNB-75 CNS.
`COC(=O)C(/C(=N/NC(=O)c1ccncc1)C(=O)Nc1ccccc1OC)c1nc2ccc(Cl)cc2[nH]c1=O` (centres undefined): the TGI in the assay with SF-295 CNS, in the assay on ACHN renal, in the assay on T-47D breast, in the assay with KM12 colon, with NCI-H226 lung and with OVCAR-3 ovarian was > 100 µM in each case. For the same compound, the TGI in the assay with SNB-75 CNS is > 100 µM.
On to `C/C(=C/CO[Si](C)(C)C(C)(C)C)C(=O)N(C)c1ccccc1I`, for which the TGI in the assay on SNB-19 CNS was found to be 30.6 µM; in the assay on SF-295 CNS, 31.5 µM; in the assay with ACHN renal it was 31 µM; with T-47D breast it was 35.9 µM; with KM12 colon it was 33.6 µM; in the assay with NCI-H226 lung, 32.4 µM. Also, the TGI with OVCAR-3 ovarian came to 31.3 µM; with SNB-75 CNS, 33.4 µM.
As to `COC(=O)c1sc(=S)sc1SCc1ccccc1CSc1sc(=S)sc1C(=O)OC`, the TGI with SNB-19 CNS, in the assay with SF-295 CNS, in the assay on ACHN renal, in the assay with KM12 colon, in the assay on NCI-H226 lung and with OVCAR-3 ovarian was > 100 µM each time. The TGI in the assay with SNB-75 CNS was > 100 µM.
In the case of `O=C1/C(=C/c2ccccc2)CCc2ccc(Cl)nc21`, the TGI is 41.5 µM with SNB-19 CNS; 38.2 µM with SF-295 CNS; 27.4 µM with ACHN renal; 18.6 µM with T-47D breast; 7.15 µM with KM12 colon; 61.9 µM in the assay on NCI-H226 lung. Moreover, the TGI was 46.9 µM with OVCAR-3 ovarian and 47.5 µM with SNB-75 CNS.
For `CCOC(=O)c1nc2c3c(ncn2n1)Oc1c(c(-c2ccccc2)nn1-c1ccccc1)C3c1ccc(Cl)cc1` (centres undefined), the TGI in the assay on SNB-19 CNS, with SF-295 CNS, in the assay with ACHN renal, in the assay with T-47D breast, with KM12 colon and in the assay on NCI-H226 lung was > 100 µM each time. For the same compound, the TGI with OVCAR-3 ovarian and in the assay on SNB-75 CNS was > 100 µM each time.
In the case of `COC(=O)C1=C(O)C(C(=O)OC)[C@@]2(O)[C@@H](C(=O)OC)C(c3ccc(OC(=O)/C(=C/c4ccc(Cl)cc4)c4ccc(Cl)cc4)cc3)C[C@@H]1[C@@H]2C(=O)OC` (some centres undefined), the TGI in the assay on SNB-19 CNS is > 100 µM; in the assay on SF-295 CNS, > 100 µM; in the assay with ACHN renal, > 100 µM; in the assay with T-47D breast, > 100 µM; in the assay on KM12 colon it was > 100 µM; in the assay with NCI-H226 lung, 63.9 µM. The TGI in the assay on OVCAR-3 ovarian and with SNB-75 CNS was > 100 µM each time.
Regarding `CC(=O)O[C@H]1C#C/C=C\C#CC[C@@H]2C(=O)N(C(=O)OC(C)(C)C)[C@@H]12`, the TGI in the assay with SNB-19 CNS was 97 µM; in the assay with SF-295 CNS, > 100 µM; in the assay with ACHN renal, 28.8 µM; in the assay with T-47D breast, 88.6 µM; in the assay on KM12 colon, > 86.7 µM; in the assay on NCI-H226 lung, 84.8 µM. The TGI was 98.3 µM in the assay on OVCAR-3 ovarian and > 72.9 µM in the assay on SNB-75 CNS.
For `COc1ccc(C2(c3ccc(OC)cc3)OC(=O)c3cccc4cccc2c34)cc1`, the TGI in the assay with SNB-19 CNS is > 100 µM; with SF-295 CNS it was > 100 µM; in the assay on ACHN renal, > 100 µM; in the assay with T-47D breast, 80.8 µM; in the assay on KM12 colon it was > 100 µM; in the assay on NCI-H226 lung, > 100 µM. In the assay with OVCAR-3 ovarian, the TGI was > 100 µM.
